Laboratory results taken from patent US11224609B2, “Mithramycin derivatives having increased selectivity and anti-cancer activity” (University of Kentucky Research Foundation, priority 2017, dated 2022).
“And” between values parts separate entries of the source, which are not always exact repeats. Equal entries are not always repeated.

What was measured:
[1] = system: TC-32 (Ewing sarcoma, EWS-FLI1 Type 1) cell line; settings: for TC-32 Ewing sarcoma EWS-FLI1 Type 1 GI50: 72 h growth inhibition, TC-32 cells; for GI50 ratio PC-3:TC-32: selectivity, GI50 in PC-3 over GI50 in TC-32
[2] = system: TC-71 Ewing sarcoma cells (EWS-FLI1 Type 1); settings: 72 h growth inhibition
[3] = system: VCaP prostate cancer cells (TMPRSS2-ERG); experiment: 72 h GI50 assay in VCaP; settings: for GI50: read-out: VCaP Prostate Cancer TMPRSS2-ERG GI50, 72 h growth inhibition, VCaP cells; for Ratio of median GI50 Prostate cells lacking TMPRSS2-ERG:VCaP: selectivity for VCaP over other prostate cancer cell lines
[4] = system: 5838 Ewing sarcoma cells (EWS-ERG); experiment: 72 h GI50 assay in 5838; settings: for GI50: read-out: 5838 Ewing Sarcoma EWS-ERG GI50, 72 h growth inhibition, 5838 cells; for Ratio of median GI50 Non-Ewing sarcoma cell lines (cf Table 3):5838: selectivity for 5838 cells
[5] = system: ES-8 Ewing sarcoma cells (EWS-FLI1 Type 2); experiment: 72 h GI50 assay in ES-8; settings: read-out: ES-8 EWS-FLI1 Type 2 GI50; 72 h growth inhibition
[6] = system: ES-2 Ewing sarcoma cells (EWS-FLI1 Type 3); experiment: 72 h GI50 assay in ES-2; settings: read-out: ES-2 EWS-FLI1 Type 3 GI50; 72 h growth inhibition
[7] = system: ES-7 Ewing sarcoma cells (EWS-FLI1 Type 4); experiment: 72 h GI50 assay in ES-7; settings: read-out: ES-7 EWS-FLI1 Type 4 GI50; 72 h growth inhibition
HeLa cells = experiment: 72 h GI50 assay in HeLa; settings: read-out: HeLa GI50; 72 h growth inhibition
A549 cells = experiment: 72 h GI50 assay in A549; settings: read-out: A549 GI50; 72 h growth inhibition
[8] = system: RD-ES Ewing sarcoma cells (EWS-FLI1 Type 2); experiment: 72 h GI50 assay in RD-ES; settings: read-out: RD-ES EWS-FLI1 Type 2 GI50; 72 h growth inhibition
[9] = system: A-673 Ewing sarcoma cells (EWS-FLI1 Type 1); experiment: 72 h GI50 assay in A-673; settings: read-out: A-673 EWS-FLI1 Type 1 GI50; 72 h growth inhibition
LNCaP cells = experiment: 72 h GI50 assay in LNCaP; settings: read-out: LNCaP GI50; 72 h growth inhibition
DU 145 cells = experiment: 72 h GI50 assay in DU 145; settings: read-out: DU 145 GI50; 72 h growth inhibition
PANC-1 cells = experiment: 72 h GI50 assay in PANC-1; settings: read-out: PANC-1 GI50; 72 h growth inhibition
HCT 116 cells = experiment: 72 h GI50 assay in HCT 116; settings: read-out: HCT 116 GI50; 72 h growth inhibition
DMS 114 cells = experiment: 72 h GI50 assay in DMS 114; settings: read-out: DMS 114 GI50; 72 h growth inhibition
[10] = system: PC-3 (prostate cancer, no ETS translocation) cell line; experiment: 72 h growth inhibition (GI50) assay in PC-3; settings: read-out: PC-3 Prostate cancer No ETS Translocation GI50; 72 h growth inhibition, PC-3 cells
[11] = system: Ewing sarcoma cell lines (TC-32, 5838, RD-ES, TC-71, A-673, ES-2, ES-7, ES-8); experiment: Median GI50 in panel of Ewing sarcoma cell lines; settings: for Ratio of Median GI50 non-Ewing sarcoma:Ewing sarcoma (Selectivity Index): median GI50 non-Ewing panel over Ewing panel; for GI50: read-out: Median GI50 in Ewing sarcoma cell lines, median over 8 Ewing sarcoma cell lines, 72 h; for Selectivity Index ratio Analogues:MTM (1): selectivity index relative to MTM (1)
[12] = system: prostate cell lines lacking TMPRSS2-ERG; experiment: Median GI50 in prostate cell lines lacking TMPRSS2-ERG; settings: read-out: Median GI50 in prostate cell lines, lacking TMPRSS2-ERG; unit inferred
CMV promoter = CMV promoter luciferase reporter assay in stably transfected TC-32 cells (non-specific control); type: cell-based; settings: 12 h; for CMV promoter driven luciferase signal: treated up to 10 μM
Source text: Full-length NR0B1 promoter sequence was PCR amplified using Q5 high-fidelity DNA polymerase (New England Biolabs, Ipswich, Mass.) from genomic DNA of TC-32 cells and cloned into the pGLUC-Basic 2 vector (New England Biolabs, Ipswich, Mass.). XhoI and KpnI restriction sites were incorporated into the primers. After restriction enzyme (New England Biolabs, Ipswich, Mass.) digest and purification by gel electrophoresis, the target amplicon was ligated into the pGLUC-Basic 2 vector using T4 DNA ligase (Thermo Fisher Scientific, Waltham, Mass.). Chemically competent TOP10 E. coli cells were used to propagate vectors under ampicillin selection (100 μg/mL) (Thermo Fisher Scientific, Waltham, Mass.). The resulting vectors were extracted and purified using GeneJET plasmid prep kit (Thermo Fisher Scientific, Waltham, Mass.). The purified vector was transfected into TC-32 cells using lipofectamine 3000 (Thermo Fisher Scientific, Waltham, Mass.) with subsequent G418 selection (1 mg/mL) (VWR, Radnor, Pa.). Separately, TC-32 cells were transfected with pCMV-Red Firefly Vector (Thermo Fisher Scientific, Waltham, Mass.) with subsequent puromycin selection (0.1 mg/mL) (Sigma, St. Louis, Mo.) as a control.
Selected TC-32 cells, expressing either NR0B1 or CMV luciferase reporter vectors, were seeded in clear 96-well plates at a density of 10,000 cells/well. […] After a 12 h treatment, media was removed and cells were washed 3 times with DPBS (Thermo Fisher Scientific, Waltham, Mass.). Cells were directly lysed on a plate shaker for 30 min at room temperature using 100 μL of passive membrane lysis solution. Lysates (80 μL) were transferred to a white luminescence plate. Luciferase substrate, either coelenterazine or D-luciferin (50 μL of 1× solution), for NR0B1 or CMV vectors, respectively, was added in a Glomax 96 microplate luminometer (Promega, Madison, Wis.) and luminescence was immediately measured. Delay before and after injections were set to the default of 0.4 s and a 10 s integration time was used. All reagents used in this assay were from the dual luciferase reporter assay system (Promega, Madison, Wis.). Concurrently, an additional 96 well plate was seeded and treated under the exact same conditions to determine cell viability using resazurin assay. Luminescence results were normalized to cell viability.

Row | Structure (SMILES) | TC-32 Ewing sarcoma EWS-FLI1 Type 1 GI50 [1] [nM] | GI50 ratio PC-3:TC-32 [1] | TC-71 EWS-FLI1 Type 1 GI50 [2] [nM] | GI50 [3] [nM] | Ratio of median GI50 Prostate cells lacking TMPRSS2-ERG:VCaP [3] | GI50 [4] [nM] | Ratio of median GI50 Non-Ewing sarcoma cell lines (cf Table 3):5838 [4] | GI50 [5] [nM] | GI50 [6] [nM] | GI50 (HeLa cells) [nM] | GI50 (A549 cells) [nM] | GI50 [8] [nM] | GI50 [9] [nM] | GI50 (LNCaP cells) [nM] | GI50 (DU 145 cells) [nM] | GI50 (PANC-1 cells) [nM] | GI50 (HCT 116 cells) [nM] | GI50 (DMS 114 cells) [nM] | GI50 [10] [nM] | Ratio of Median GI50 non-Ewing sarcoma:Ewing sarcoma (Selectivity Index) [11] | further results
1 | COC(=O)C(Cc1c[nH]c2ccccc12)NC(=O)C(OC)C1Cc2cc3cc(OC4CC(OC5CC(O)C(O)C(C)O5)C(O)C(C)O4)c(C)c(O)c3c(O)c2C(=O)C1OC1CC(OC2CC(OC3CC(C)(O)C(O)C(C)O3)C(O)C(C)O2)C(O)C(C)O1 (stereo not shown) [MTMSA-Trp (3), Mithramycin SA-Tryptophan, reference compound] | 16 | 4.8 | 57 | 60 | 1.3 | 6 | 18.2 | 99 | 133 | 323 | 89 | 47 | 81 | 109 | 46 | 161 | 30 | 151 | 76 | 2.3 and 1.5 | GI50 [7]: 32 nM; GI50 [11]: 47 nM; Selectivity Index ratio Analogues:MTM (1) [11]: 1.5; GI50 [12]: 76 nM
2 | COC(=O)C(Cc1ccccc1)NC(=O)C(Cc1c[nH]c2ccccc12)NC(=O)C(OC)C1Cc2cc3cc(OC4CC(OC5CC(O)C(O)C(C)O5)C(O)C(C)O4)c(C)c(O)c3c(O)c2C(=O)C1OC1CC(OC2CC(OC3CC(C)(O)C(O)C(C)O3)C(O)C(C)O2)C(O)C(C)O1 (stereo not shown) [Analogue 59, MTMSA-Trp-Phe] | 37 | 2.0 | 19 | 21 | 3.6 | 39 | 3.9 | 74 | 125 | 397 | 1940 | 54 | 238 | 697 | 67 | 152 | 82 | 18 | 75 | 2.4 and < 3 | CMV driven luciferase expression decreased down to (CMV promoter; concentrations between 1 and 10 μM): ~75%; CMV promoter driven luciferase signal (CMV promoter): decreased; CMV promoter driven luciferase signal (CMV promoter; listed as MTMSA-Trp-Phe (59)): reduces; GI50 [11]: 64 nM; Selectivity Index ratio Analogues:MTM (1) [11]: 1.6
3 | C=CCOc1ccc2[nH]cc(CC(NC(=O)C(OC)C3Cc4cc5cc(OC6CC(OC7CC(O)C(O)C(C)O7)C(O)C(C)O6)c(C)c(O)c5c(O)c4C(=O)C3OC3CC(OC4CC(OC5CC(C)(O)C(O)C(C)O5)C(O)C(C)O4)C(O)C(C)O3)C(=O)OC)c2c1 (stereo not shown) [Analogue 51] | 53 | 8.6 | 636 | 485 | 0.9 | 24 | 22.2 | 90 | 5370 | 1710 | 1540 | 843 | 272 | 2230 | 298 | 532 | 380 | 2840 | 454 | 1.1 | GI50 [7]: 1660 nM; GI50 [11]: 485 nM; Selectivity Index ratio Analogues:MTM (1) [11]: 0.7; GI50 [12]: 454 nM
4 | COC(=O)C(Cc1c[nH]c2cc(F)ccc12)NC(=O)C(OC)C1Cc2cc3cc(OC4CC(OC5CC(O)C(O)C(C)O5)C(O)C(C)O4)c(C)c(O)c3c(O)c2C(=O)C1OC1CC(OC2CC(OC3CC(C)(O)C(O)C(C)O3)C(O)C(C)O2)C(O)C(C)O1 (stereo not shown) [Analogue 56] | 27 | 6.9 | 640 | 319 | 0.6 | 466 | 0.9 | 401 | 3310 | 1550 | 941 | 1000 | 262 | 1960 | 157 | 386 | 419 | 2470 | 187 | 0.9 | GI50 [7]: 1660 nM; GI50 [11]: 466 nM; Selectivity Index ratio Analogues:MTM (1) [11]: 0.6; GI50 [12]: 187 nM
5 | COC(=O)C(Cc1cn(C)c2ccccc12)NC(=O)C(OC)C1Cc2cc3cc(OC4CC(OC5CC(O)C(O)C(C)O5)C(O)C(C)O4)c(C)c(O)c3c(O)c2C(=O)C1OC1CC(OC2CC(OC3CC(C)(O)C(O)C(C)O3)C(O)C(C)O2)C(O)C(C)O1 (stereo not shown) [Analogue 45] | 139 | 11.2 | 696 | 307 | 5.1 | 121 | 13.3 | 1330 | 1500 | 1760 | 2370 | 539 | 1010 | 1860 | 761 | 1730 | 826 | 1050 | 1560 | 2.4 | fold increase in selectivity ([1]; PC-3:TC-32 selectivity, comparator not stated): ~4 fold; GI50 [7]: 672 nM; Selectivity Index ratio Analogues:MTM (1) [11]: 1.6; GI50 [12]: 1560 nM
